Eleven compounds from article PMC4414711 (Chemico-biological interactions, 2014) can be followed below.

pIC50: −log10 of the molar value. Where two headings read alike, the source gives them in different places.

One experiment concerns the target T1, AKR1C2 (Homo sapiens, UniProt P52895).
T1 sequence (P52895 1-323): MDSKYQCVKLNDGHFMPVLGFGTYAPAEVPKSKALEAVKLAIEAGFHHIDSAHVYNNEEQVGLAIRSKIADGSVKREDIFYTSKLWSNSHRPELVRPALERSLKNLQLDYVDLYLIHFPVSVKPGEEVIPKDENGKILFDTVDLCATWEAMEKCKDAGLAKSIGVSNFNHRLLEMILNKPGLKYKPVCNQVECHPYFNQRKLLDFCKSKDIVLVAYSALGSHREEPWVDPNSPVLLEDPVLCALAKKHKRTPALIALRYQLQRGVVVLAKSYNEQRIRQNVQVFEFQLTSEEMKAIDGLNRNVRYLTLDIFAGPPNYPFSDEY

Another experiment addresses T2, AKR1C3 (Homo sapiens, UniProt P42330).
T2 sequence (P42330 1-323): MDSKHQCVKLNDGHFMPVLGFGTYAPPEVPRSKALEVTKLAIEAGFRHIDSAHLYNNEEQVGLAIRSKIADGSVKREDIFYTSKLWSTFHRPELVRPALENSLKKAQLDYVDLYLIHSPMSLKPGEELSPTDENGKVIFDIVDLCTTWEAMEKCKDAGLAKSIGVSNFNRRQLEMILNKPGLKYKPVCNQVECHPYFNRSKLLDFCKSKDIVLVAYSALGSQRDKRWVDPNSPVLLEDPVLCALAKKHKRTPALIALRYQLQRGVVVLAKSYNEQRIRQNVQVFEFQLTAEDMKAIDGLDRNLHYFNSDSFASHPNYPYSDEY
The conditions noted are these: for IC50 Ratio 1C2:1C3: selectivity, ratio of IC50 values AKR1C2 to AKR1C3.

The mark [1] stands for this setting: read-out: 1C2 IC50, recombinant AKR1C2, S-tetralol 15 μM (= Km), NADP+.
Setting [2] is: read-out: 1C3 IC50, recombinant AKR1C3, S-tetralol 165 μM (= Km), NADP+.

Take `O=C(O)/C=C/c1cccc(OC(=O)CCc2ccccc2)c1` [Compound 9, (E)-3-(3-((3-phenylpropanoyl)oxy)phenyl)acrylic acid]: the negative logarithm of the IC50 (pIC50) against AKR1C2 was 4.57; against AKR1C3, 6.02. Besides, the “increase of the inhibitory selectivity” value on AKR1C3 (in comparison to compound 8) is on record as 1.5 fold. The “IC50 Ratio 1C2:1C3” value on AKR1C3 came out at 28.

`CC(C)=CCc1cc(/C=C/C(=O)OC(C)(C)C)ccc1OC(=O)CCc1ccccc1` [Compound 7, tert-butyl(2E)-3-[3-(3-methylbut-2-en-1-yl)-4-[(3-phenylpropanoyl)oxy]phenyl]prop-2-enoate]: the negative-log IC50 (pIC50) against AKR1C2 is 3.82; on AKR1C3, 3.22. The “IC50 Ratio 1C2:1C3” value on AKR1C3 came out at 0.3.

Turning to `O=C(O)/C=C/c1ccc(OC(=O)c2ccccc2)cc1` [Compound 11, (2E)-3-[4-(benzoyloxy)phenyl]prop-2-enoic acid], at AKR1C2, the pIC50 was 3.90. For the same compound, on AKR1C3, the pIC50 is 5.20 and the “IC50 Ratio 1C2:1C3” value was 20.

As to “(2E)-3-(3,3-dimethyl-3,4-dihydro-2H-1-benzopyran-6-yl)prop-2-enoate [Compound 5]”, the pIC50 was 4.85 at AKR1C2 (setting [1]) and 4.68 at AKR1C3 (setting [2]). On AKR1C2 (relative to compound 4), the “further decrease of inhibitory potency for AKR1C2” value is recorded as 2 fold. Further, the “further decrease of inhibitory potency for AKR1C3” value at AKR1C3 (relative to compound 4) turned out to be 2 fold. The “IC50 Ratio 1C2:1C3” value at AKR1C3 came out at 1.

Take `CC(C)(C)OC(=O)C=Cc1ccc(OC(=O)CCc2ccccc2)cc1` (mixture of isomers) [Compound 13, (Z/E)-tert-butyl 3-(4-(3-phenylpropanoyloxy)phenyl)acrylate]: the pIC50 is 4.57 on AKR1C2 (setting [1]) and 3.20 at AKR1C3 (setting [2]). The “IC50 Ratio 1C2:1C3” value at AKR1C3 is on record as 0.04.

On to `O=C(O)/C=C/c1ccc(OC(=O)c2ccncc2)cc1` [Compound 12, (2E)-3-[4-(pyridine-4-carbonyloxy)phenyl]prop-2-enoic acid], for which the values for the pIC50 on AKR1C2 and against AKR1C3 were 4.06 and 4.17, respectively. In addition, at AKR1C3, the “IC50 Ratio 1C2:1C3” value came out at 1.

For `COc1cc(/C=C/C(=O)O)ccc1O` [Compound 16, ferulic acid], the pIC50 on AKR1C2 (setting [1]) is 3.38; at AKR1C3 (setting [2]), 4.68. Further, the “IC50 Ratio 1C2:1C3” value on AKR1C3 came out at 20.

With `O=C(O)/C=C/c1ccc(OC(=O)CCc2ccccc2)cc1` [Compound 8, (2E)-3-prop-2-enoic acid], the pIC50 on AKR1C2 (setting [1]) was 4.06; on AKR1C3 (setting [2]), 5.33. In addition, the “IC50 Ratio 1C2:1C3” value at AKR1C3 was 19.

As for `O=C(O)/C=C/c1cccc(O)c1` [Compound 15, m-coumaric acid], the pIC50 on AKR1C2 (setting [1]) was 3.41; on AKR1C3 (setting [2]), 4.07. Besides, at AKR1C3, the “IC50 Ratio 1C2:1C3” value amounted to 5.

Consider `O=C(O)C=Cc1ccc(OC(=O)CCc2ccccc2)cc1` (mixture of isomers) [Compound 10, (Z/E)-3-(4-((3-phenylpropanoyl)oxy)phenyl)acrylic acid], for which the negative-log IC50 (pIC50) on AKR1C2 (setting [1]) was 4.60; on AKR1C3 (setting [2]) it was 5.64. Moreover, at AKR1C3 (in comparison to compound 8), the “decrease of the inhibitory selectivity” value worked out at 1.7 fold. Also, the “IC50 Ratio 1C2:1C3” value on AKR1C3 worked out at 11.

For the compound `O=C(O)/C=C/c1ccc(O)cc1` [Compound 14, p-coumaric acid], the pIC50 on AKR1C2 is 2.89. Moreover, on AKR1C3, the pIC50 was 3.70 and the “IC50 Ratio 1C2:1C3” value is 7.

The term pIC50 denotes the IC50 on a negative log10 scale, so that one unit is a factor of ten.
